Measurements: patent US9518064B2, “Imidazothiadiazole and imidazopyridazine derivatives as protease activated receptor 4 (PAR4) inhibitors for treating platelet aggregation” (BRISTOL-MYERS SQUIBB COMPANY, priority 2012, dated 2016)

Key:
Format in all cases: cell-based
human PRP = test: Tissue factor-induced platelet aggregation assay; conditions: FIGS. 1 and 2
Source text: Example E is a tissue factor-induced platelet aggregation assay. The conditions in this assay mimic the physiological events during thrombus formation. In this assay, platelet aggregation in human PRP was initiated by the addition of tissue factor and CaCl2. Tissue factor, the initiator of the extrinsic coagulation cascade, is highly elevated in human atherosclerotic plaque. Exposure of blood to tissue factor at the atherosclerotic site triggers a robust generation of thrombin and induces the formation of obstructive thrombi.
The ability of PAR1 or PAR4 antagonists to inhibit platelet aggregation induced by endogenous thrombin can be tested in a tissue factor driven aggregation assay. Aggregation is initiated by addition of CaCl2 and recombinant human tissue factor, which results in the generation of thrombin through activation of the coagulation pathway in the plasma. Anticoagulant agents such as corn trypsin inhibitor (Haematologic Technologies, Essex Junction, Vt.) at 50 μg/ml and PEFABLOC® FG (Centerchem, Norwalk, Conn.) are also added to the sample to prevent fibrin clot formation during the time of the study. Platelet aggregation is monitored using standard instrumentation including optical aggregometer or impedance aggregometer.

human washed platelets = test: Alpha-thrombin induced platelet aggregation assay in human washed platelets; conditions: 0.1 h, read-out: IC50 for the inhibition of platelet aggregation
Description: Example D is an alpha-thrombin-induced platelet aggregation assay. Alpha-thrombin activates both PAR1 and PAR4. The ability of a selective PAR4 antagonist of the present invention, Example 13, to inhibit platelet aggregation was measured using a standard optical aggregometer.
Human blood was collected in ACD (85 mM tri-sodium citrate, 78 mM citric acid, 110 mM D-glucose, pH 4.4) at a ratio of 1.4 ml per 10 ml blood. PRP was isolated by centrifugation at 170 g for 14 minutes and platelets were further pelleted by centrifugation at 1300 g for 6 minutes. Platelets were washed once with 10 ml ACD containing 1 mg/ml bovine serum albumin. Platelets were resuspended at ˜2.5×10^8/ml in Tyrode's Buffer (137 mM NaCl, 2 mM KCl, 1.0 mM MgCl2, 1 mM CaCl2, 5 mM glucose, 20 mM HEPES pH 7.4).
The ability of a PAR4 antagonist (Example 13) compound to inhibit platelet aggregation induced by alpha-thrombin was tested using human washed platelets. Example 13 was pre-incubated with washed platelets for 20 min. Aggregation was initiated by addition of 1.5 nM alpha-thrombin (Haematologic Technologies, Essex Junction, Vt.) to 300 μl of washed platelets at stirring speed of 1000 rpm. […] IC50 was calculated using vehicle control as 0% inhibition.

PAR4 [1] = molecular target: T1, PAR4 (Homo sapiens (Human), UniProt Q96RI0); test: FLIPR assay in PAR4-expressing HEK293 cells (calcium mobilization); conditions: PAR4 antagonist activity, FLIPR assay as described in Example A
T1 sequence (Q96RI0 18-385): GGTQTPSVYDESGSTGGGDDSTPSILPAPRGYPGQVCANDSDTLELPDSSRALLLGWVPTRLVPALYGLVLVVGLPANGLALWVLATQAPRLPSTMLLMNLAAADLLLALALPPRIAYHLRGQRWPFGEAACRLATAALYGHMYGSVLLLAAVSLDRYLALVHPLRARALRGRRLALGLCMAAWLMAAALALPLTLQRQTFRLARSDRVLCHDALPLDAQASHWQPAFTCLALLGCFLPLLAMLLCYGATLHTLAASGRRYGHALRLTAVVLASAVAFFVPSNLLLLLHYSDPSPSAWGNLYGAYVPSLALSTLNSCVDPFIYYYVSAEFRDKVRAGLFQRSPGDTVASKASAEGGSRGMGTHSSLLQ

PAR4 [2] = molecular target: T1, PAR4; test: Gamma thrombin induced platelet aggregation assay (PRP assay); conditions: γ-thrombin induced platelet aggregation in PRP

In the case of `COc1cc(OCc2cccc(-c3ccc(C#N)nc3)c2)c2cc(-c3cn4nc(OC)sc4n3)oc2c1` [Example 13], the “inhibition of tissue factor-induced platelet aggregation” value (human PRP) is reported as “effective inhibition”, the IC50 (human washed platelets) is reported as 11 nM and the IC50 (PAR4 [1]) is reported as 1.74 nM. It also gave an IC50 (PAR4 [2]) of 4.91 nM.
